Measurements: patent US12583818B2 (DAEGU-GYEONGBUK MEDICAL INNOVATION FOUNDATION, priority 2020, dated 2026)

target: T1, Pin1 (Homo sapiens, UniProt Q13526); assay: Evaluation of Pin1 enzyme inhibitory activity (Sensolyte Green Pin1 assay kit); type: biochemical; settings: Table 2; read-out: concentration at which Pin1 inhibitory activity was exhibited
T1 construct: purchased Anaspec
Protocol: In order to evaluate the Pin1 enzyme inhibitory activity of the compound represented by formula 1 according to the present invention, the following experiment was performed, and the results are shown in Table 2 below.
The enzyme activity of Pin1 protein was measured using a sensolyte Green Pin1 assay kit of Anaspec. The substrate was diluted in a buffer at a ratio of 1:100 to prepare a concentration of 1 μM, and the protein was diluted in a buffer at a ratio of 1:20 to prepare a concentration of 50 μg/ml. In addition, a developing solution was prepared by diluting thereof in a buffer at a ratio of 1:100.
The compound prepared in each example was diluted with DMSO and prepared at a concentration of 100 μM, 10 μM, 1 μM or 0.1 μM using a buffer. After sequentially adding 10 μl of the compound prepared in each Example diluted to four concentrations according to the above method, 10 μl of Pin1 protein, and 30 μl of the developing solution to each well of a black 96-well plate, […]. Finally, 50 μl of the substrate was added to each well of the plate, and the enzyme reaction was carried out after shaking the plate for 10 seconds.
Then, the plate was incubated for 2 hours at room temperature in an environment without light, and the fluorescence values at 490 nm/520 nm wavelength were measured using a device of Synergy Neo […]. The results are shown in Table 2 below by dividing the grades of A to D for each concentration (μM) at which the Pin1 enzyme activity is inhibited.

T1 sequence (Q13526 whole entry): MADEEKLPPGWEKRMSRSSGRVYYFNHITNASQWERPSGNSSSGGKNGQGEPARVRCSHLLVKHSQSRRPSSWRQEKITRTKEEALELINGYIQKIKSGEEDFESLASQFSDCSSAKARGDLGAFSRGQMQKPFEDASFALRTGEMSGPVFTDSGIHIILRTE

O=S(=O)(NCCCc1c[nH]c2ccc(Cl)cc12)c1ccc(OCCCN2CCCNCC2)cc1 [Example 102, 4-(3-(1,4-diazepan-1-yl)propoxy)-N-(3-(5-chloro-1H-indol-3-yl)propyl)benzenesulfonamide] and O=S(=O)(NCCCc1c[nH]c2ccc(Cl)cc12)c1ccc(OCCCN2CCCCC2)cc1 [Example 87, N-(3-(5-chloro-1H-indol-3-yl)propyl)-4-(3-(piperidin-1-yl)propoxy)benzenesulfonamide] cannot be ordered by IC50: under 1 µM for the first, under 1 µM for the second.

same assay, conditions: concentration at which the Pin1 enzyme activity is inhibited; 2 hours at room temperature, fluorescence 490 nm/520 nm; read-out: Pin 1 inhibition

First: O=S(=O)(NCCCc1c[nH]c2ccc(Cl)cc12)c1ccc(OCCCN2CCN(CC(F)(F)F)CC2)cc1 [Example 76, N-(3-(5-chloro-1H-indol-3-yl)propyl)-4-(3-(4-(2,2,2-trifluoroethyl)piperazin-1-yl)propoxy)benzenesulfonamide]
Second: O=S(=O)(NCCCc1c[nH]c2ccc(Cl)cc12)c1ccc(OCCCN2CCCCC2)cc1 [Example 87, N-(3-(5-chloro-1H-indol-3-yl)propyl)-4-(3-(piperidin-1-yl)propoxy)benzenesulfonamide]
The IC50 of the first is higher: 1 to 10 µM for the first, under 1 µM for the second.

CN1CCN(CCOc2ccc(S(=O)(=O)NCCCc3c[nH]c4ccccc34)cc2)CC1 [Example 52, N-(3-(1H-indol-3-yl)propyl)-4-(2-(4-methylpiperazin-1-yl)ethoxy)benzenesulfonamide] and CC(C)N1CCN(CCOc2ccc(S(=O)(=O)NCCCc3c[nH]c4ccccc34)cc2)CC1 [Example 53, N-(3-(1H-indol-3-yl)propyl)-4-(2-(4-isopropylpiperazin-1-yl)ethoxy)benzenesulfonamide] fall in the same range of IC50: 10 to 100 µM for the first, 10 to 100 µM for the second.

First: Cc1[nH]c2ccccc2c1CCNS(=O)(=O)c1ccc(OCCCN2CCN(C)CC2)cc1 [Example 54, N-(2-(2-methyl-1H-indol-3-yl)ethyl)-4-(3-(4-methylpiperazin-1-yl)propoxy)benzenesulfonamide]
Second: CN1CCN(CCCOc2ccc(S(=O)(=O)NCCCn3cnc4ccccc43)cc2)CC1 [Example 42, N-(3-(1H-benzo[d]imidazol-1-yl)propyl)-4-(3-(4-methylpiperazin-1-yl)propoxy)benzenesulfonamide]
The IC50 of the first is lower: 10 to 100 µM for the first, over 100 µM for the second. The first is the more potent here.

O=S(=O)(NCCCc1c[nH]c2ccc(Cl)cc12)c1ccc(Nc2cccc(N3CCOCC3)c2)cc1 [Example 126, N-(3-(5-chloro-1H-indol-3-yl)propyl)-4-((3-morpholinophenyl)amino)benzenesulfonamide] and O=S(=O)(NCCCc1c[nH]c2ccc(Cl)cc12)c1ccc(Nc2cccc(N3CCC(O)CC3)c2)cc1 [Example 139, N-(3-(5-chloro-1H-indol-3-yl)propyl)-4-((3-(4-hydroxypiperidin-1-yl)phenyl)amino)benzenesulfonamide] fall in the same range of IC50: 1 to 10 µM for the first, 1 to 10 µM for the second.

First: CCCCOc1ccc(S(=O)(=O)NCCN2CCC(Cc3ccccc3)CC2)cc1 [Example 10, N-(2-(4-benzylpiperidin-1-yl)ethyl)-4-butoxybenzenesulfonamide]
Second: O=S(=O)(NCCCc1c[nH]c2ccccc12)c1ccc(OCCCN2CCC(O)CC2)cc1 [Example 69, N-(3-(1H-indol-3-yl)propyl)-4-(3-(4-hydroxypiperidin-1-yl)propoxy)benzenesulfonamide]
The IC50 of the first is higher: over 100 µM for the first, 1 to 10 µM for the second. The second is the more potent here.

First: O=C1CN(CCCOc2ccc(S(=O)(=O)NCCCc3c[nH]c4ccc(Cl)cc34)cc2)CCN1 [Example 163, N-(3-(5-chloro-1H-indol-3-yl)propyl)-4-(3-(3-oxopiperazin-1-yl)propoxy)benzenesulfonamide]
Second: O=S(=O)(NCCCc1c[nH]c2ccc(Cl)cc12)c1ccc(OCCCN2CCCNCC2)cc1 [Example 102, 4-(3-(1,4-diazepan-1-yl)propoxy)-N-(3-(5-chloro-1H-indol-3-yl)propyl)benzenesulfonamide]
The IC50 of the first is higher: 1 to 10 µM for the first, under 1 µM for the second. The second is the more potent here.

CN1CCCN(c2cccc(Oc3ccc(S(=O)(=O)NCCCc4c[nH]c5ccc(Cl)cc45)cc3)c2)CC1 [Example 122, N-(3-(5-chloro-1H-indol-3-yl)propyl)-4-(3-(4-methyl-1,4-diazepan-1-yl)phenoxy)benzenesulfonamide] and O=S(=O)(NCCCc1c[nH]c2ccc(Cl)cc12)c1ccc(Oc2cccc(N3CCOCC3)c2)cc1 [Example 128, N-(3-(5-chloro-1H-indol-3-yl)propyl)-4-(3-morpholinophenoxy)benzenesulfonamide] fall in the same range of IC50: 1 to 10 µM for the first, 1 to 10 µM for the second.

CN(C)CCCOc1ccc(S(=O)(=O)NCCCN2CCCC2=O)cc1 [Example 18, 4-(3-(dimethylamino)propoxy)-N-(3-(2-oxopyrrolidin-1-yl)propyl)benzenesulfonamide] and CCCCOc1ccc(S(=O)(=O)NCCCN2CCCC2=O)cc1 [Example 13, 4-butoxy-N-(3-(2-oxopyrrolidin-1-yl)propyl)benzenesulfonamide] cannot be ordered by IC50: over 100 µM for the first, over 100 µM for the second.

O=S(=O)(NCCCc1c[nH]c2ccc(Cl)cc12)c1ccc(Oc2cccc(Br)c2)cc1 [Example 119, 4-(3-bromophenoxy)-N-(3-(5-chloro-1H-indol-3-yl)propyl)benzenesulfonamide] and O=S(=O)(NCCCc1c[nH]c2ccc(Cl)cc12)c1ccc(Oc2cccc(N3CCC(O)CC3)c2)cc1 [Example 136, N-(3-(5-chloro-1H-indol-3-yl)propyl)-4-(3-(4-hydroxypiperidin-1-yl)phenoxy)benzenesulfonamide] fall in the same range of IC50: 1 to 10 µM for the first, 1 to 10 µM for the second.

CN1CCN(CCCOc2ccc(S(=O)(=O)NCCCc3c[nH]c4ccccc34)cc2F)CC1 [Example 62, N-(3-(1H-indol-3-yl)propyl)-3-fluoro-4-(3-(4-methylpiperazin-1-yl)propoxy)benzenesulfonamide] and CN1CCN(CCCOc2ccc(S(=O)(=O)NCCCc3c[nH]c4ccc(-c5ccccc5)cc34)cc2)CC1 [Example 156, 4-(3-(4-methylpiperazin-1-yl)propoxy)-N-(3-(5-phenyl-1H-indol-3-yl)propyl)benzenesulfonamide] fall in the same range of IC50: 1 to 10 µM for the first, 1 to 10 µM for the second.

CCCCOc1ccc(S(=O)(=O)NCCCn2cnc3ccccc32)cc1 [Example 33, N-(3-(1H-benzo[d]imidazol-1-yl)propyl)-4-butoxybenzenesulfonamide] and CN(C)CCCOc1ccc(S(=O)(=O)NCCCn2cnc3ccccc32)cc1 [Example 40, N-(3-(1H-benzo[d]imidazol-1-yl)propyl)-4-(3-(dimethylamino)propoxy)benzenesulfonamide] cannot be ordered by IC50: over 100 µM for the first, over 100 µM for the second.

O=S(=O)(NCCCc1c[nH]c2ccc(Cl)cc12)c1ccc(Nc2cccc(N3CCNCC3)n2)cc1 [Example 132, N-(3-(5-chloro-1H-indol-3-yl)propyl)-4-((6-(piperazin-1-yl)pyridin-2-yl)amino)benzenesulfonamide] and O=S(=O)(NCCCc1c[nH]c2ccc(Cl)cc12)c1cccc(OCCCN2CCNCC2)c1 [Example 96, N-(3-(5-chloro-1H-indol-3-yl)propyl)-3-(3-(piperazin-1-yl)propoxy)benzenesulfonamide] fall in the same range of IC50: 1 to 10 µM for the first, 1 to 10 µM for the second.

CN1CCN(CCCOc2ccc(S(=O)(=O)NCCCn3ccc4ccccc43)cc2)CC1 [Example 41, N-(3-(1H-indol-1-yl)propyl)-4-(3-(4-methylpiperazin-1-yl)propoxy)benzenesulfonamide] and CCCCOc1ccc(S(=O)(=O)NCCCn2ccc3ccccc32)cc1 [Example 32, N-(3-(1H-indol-1-yl)propyl)-4-butoxybenzenesulfonamide] cannot be ordered by IC50: over 100 µM for the first, over 100 µM for the second.

Cc1ccc2[nH]cc(C3CCN(S(=O)(=O)c4ccc(OCCCN5CCN(C)CC5)cc4)CC3)c2c1 [Example 65, 5-methyl-3-(1-((4-(3-(4-methylpiperazin-1-yl)propoxy)phenyl)sulfonyl)piperidin-4-yl)-1H-indole] and CN1CCN(CCCOc2ccc(S(=O)(=O)N3CCC(c4c[nH]c5ccc(F)cc45)CC3)cc2)CC1 [Example 71, 5-fluoro-3-(1-((4-(3-(4-methylpiperazin-1-yl)propoxy)phenyl)sulfonyl)piperidin-4-yl)-1H-indole] fall in the same range of IC50: 10 to 100 µM for the first, 10 to 100 µM for the second.

Compared with CCCCOc1ccc(S(=O)(=O)NCCCc2c[nH]c3ccccc23)cc1 [Example 20, N-(3-(1H-indol-3-yl)propyl)-4-butoxybenzenesulfonamide], O=S(=O)(NCCCc1c[nH]c2ccccc12)c1ccc(OCCCN2CCOCC2)cc1 [Example 30, N-(3-(1H-indol-3-yl)propyl)-4-(3-morpholinopropoxy)benzenesulfonamide] is higher in IC50: 10 to 100 µM for the first, over 100 µM for the second.

First: COc1ccc2[nH]cc(C3CCN(S(=O)(=O)c4ccc(OCCCN5CCN(C)CC5)cc4)CC3)c2c1 [Example 64, 5-methoxy-3-(1-((4-(3-(4-methylpiperazin-1-yl)propoxy)phenyl)sulfonyl)piperidin-4-yl)-1H-indole]
Second: CC(C)(c1ccccc1NS(=O)(=O)c1ccc(OCCCN2CCNCC2)cc1)c1c[nH]c2ccc(Cl)cc12 [Example 182, N-(2-(2-(5-chloro-1H-indol-3-yl)propan-2-yl)phenyl)-4-(3-(piperazin-1-yl)propoxy)benzenesulfonamide]
The IC50 of the first is higher: 10 to 100 µM for the first, 1 to 10 µM for the second. The second is the more potent here.

CCCCOc1ccc(S(=O)(=O)NCCc2ccc(N3CCOCC3)cc2)cc1 [Example 7, 4-butoxy-N-(4-morpholinophenethyl)benzenesulfonamide] and CCCCOc1ccc(S(=O)(=O)NCCc2cc3ccccc3[nH]2)cc1 [Example 25, N-(2-(1H-indol-2-yl)ethyl)-4-butoxybenzenesulfonamide] cannot be ordered by IC50: over 100 µM for the first, over 100 µM for the second.

For O=S(=O)(NCCCc1c[nH]c2ccc(-c3ccccc3)cc12)c1ccc(OCCCN2CCNCC2)cc1 [Example 155, N-(3-(5-phenyl-1H-indol-3-yl)propyl)-4-(3-(piperazin-1-yl)propoxy)benzenesulfonamide], the IC50 was 1 to 10 µM.
